Here are results for 15 compounds from patent publication US20060292553A1, “Method for study of the genetic and functional variability of HIV and kit for using it” (Bioalliance Pharma, a corporation of France, priority 2004, published 2006).

Experiment [1] has as its system HIV-1 virus of the patient (protease and inverse transcriptase genes). The experiment in a line: ViroSeq genotyping, evidence of resistance from the amplicon of patient plasma. The note with it: M184V, T215Y, L63P. The text has this: (§1) The procedure to generate the first specific amplicon is as follows: • 1) Viral RNA contained in a biological sample is extracted. The biological sample may be derived from a sample from the patient. It may be a blood or serum sample, but may also come from a biological fluid or a biopsy or any other tissue preparation. The biological sample may also come from a viral culture. In a general manner, a biological sample corresponds to all types of samples containing one or several HIV-1 variants. The term “HIV-1 virus” in this Example is used to mean any viral strain belonging to the sub-types B and non-B. • 2) The RNA obtained in (1) is retrotranscribed and amplified with one of the pairs of specific primers in Table 1 below to obtain an amplicon characterized by: […]
(§2) Tables 2 and 3 below show two examples of samples of plasma in patients 1 and 2, respectively, for which the amplicons generated by the method above have made it possible to implement the genotyping according to the Trugene and Viroseq techniques and phenotyping according to the Phenoscript technique.
The RNA is extracted using plasmas from patients according to a known extraction technique based on the affinity of RNA with respect to silica columns, the viral RNA is retrotranscribed and amplified using PCR with primers specific to the pol gene making possible amplification of a sequence of nucleic acids of 1800 pb comprising, for the protease, codons 1 to 99 and comprising, for the inverse transcriptase, codons 1 to 335. The DNA thus obtained is then sequenced with seven different primers according to the Big Dye™ Terminator technology, a sequencing technique using dye terminators. The sequence reaction is initiated by each specific non-labeled primer, then interrupted by each of the labeled nucleotides. All of the fragments synthesized are then separated on electrophoresis gel. The color of the fluorochrome will then be registered using an automatic sequencer (ABI Prism 377 DNA sequencer), specifically indicating the fragments ending with each of the four labeled nucleotides. The sequences, once reconstituted, are compared to the sequence of a reference virus using an alignment software.
(§3) The measurement of genetic variability is carried out using a specific sequence of nucleic acids amplified according to aspects of the method, then analyzed according to known sequencing techniques (Trugene, ViroSeq). Mutations in the genes of the protease and of the inverse transcriptase identified by these tests are interpreted according to algorithms that are updated regularly. A first score of 0 to 2 is attributed to each of the three levels of resistance determined by the interpretation. Table 11 below summarizes the interpretations given by the Trugene and ViroSeq tests as a function of the mutations identified and of the anti-retroviruses (ARV) used and assigns a genotypical score corresponding to the magnitude of the resistance.

For experiment [2] the test system is unchanged. The experiment in a line: Trugene genotyping, interpretation of resistances from the amplicon of patient plasma. The note with it: M184V, T215Y, L63P.
Source text: as §1, §2
The Trugene HIV-1 genotyping kit is used to determine the genotype of the virus of sub-types B and non-B. The RNA is extracted using plasma from patients, according to known techniques, the viral RNA is retrotranscribed and amplified using PCR with primers specific for the pol gene making possible amplification of a sequence of nucleic acids of 1300 pb comprising, for the protease, codons 1 to 99 and comprising, for the inverse transcriptase, codons 1 to 247. The product of RT-PCR thus obtained is used in each of the 16 sequencing reactions by using the principle of CLIP™ reaction, sequencing technique using labeled primers (dye primers). Four pairs of different primers are used for this sequencing method, two pairs for the sequencing of the protease and two other pairs for the sequencing of the inverse transcriptase. Each sequence reaction is initiated by a specific dye primer (CLIP™), then interrupted by the corresponding labeled nucleotide. All of the fragments synthesized are then separated on electrophoresis gel and analyzed by an automatic sequencer specifically indicating the fragments ending with each of the four labeled nucleotides. The sequences, once reconstituted, are compared to the sequence of a reference virus using an alignment software.
as §3

The test system of experiment [3] is HIV-1 virus of the patient (recombinant virus). In words: Phenoscript phenotyping, recombinant virus of the patient in the presence of drugs. The class given is cell-based.
Source text: The principle of the phenotypical tests for resistance is based on the measurement in vitro of the growth of a virus in the patient in the presence of drugs.
Viral RNA derived from the plasma is extracted, then the regions coding for inverse transcriptase and/or protease are amplified using PCR in phenotypical tests. Amplicons are recombined in vitro in a defective vector to form a viral particle. This viral particle is placed in a culture in the presence of increasing concentrations of drugs. The results are expressed in a “fold change” ratio of IC 50 (or IC90) with respect to a control virus which corresponds to the concentration of the drug that inhibits 50% (or 90%) of the viral replication in comparison to the reference wild type virus. The resistance level is defined as a function of thresholds of sensitivity (cut off).
as §2
The principle of the tests of phenotypical resistance is based on the measurement in vitro of the growth of a virus in the patient in the presence of drug(s)/active agent(s), compared to a reference virus (resistance index). The level of resistance is defined as a function of thresholds of sensitivity (cut off). A second score of 0 to 2 is attributed to each of the three levels of resistance determined by the interpretation. Table 12 summarizes the interpretations given by the main phenotypical tests, PhenoSense and Phenoscript, as a function of their thresholds of sensitivity and assigns a phenotypical score corresponding to the magnitude of resistance.

Setting [4] is: Patient 1 plasma sample, mutations D67N, K70R, K219E, K103N, V108I, P225H.
[5] abbreviates: Patient 2 plasma sample, mutations M41L, L210W, M36L.

Molecules are shown by their SMILES.

Take `Cc1ccnc2c1NC(=O)c1cccnc1N2C1CC1` [NVP]: the “Viroseq Evidence of resistance” value in experiment [1] (setting [4]) is reported as “High”; in experiment [1] (setting [5]), “Zero”. For the same compound, the “Trugene Interpretation of resistances” value in experiment [2] (setting [4]) is “Resistance”; in experiment [2] (setting [5]) it was “No resistance”. Moreover, the “Phenoscript Contribution to the therapeutic response” value (shortened to “Phenoscript Contribution”) was “Improbable” in experiment [3] (Patient 1 plasma sample) and “Probable” in experiment [3] (Patient 2 plasma sample).
For the compound `CC(C)Nc1cccnc1N1CCN(C(=O)c2cc3cc(NS(C)(=O)=O)ccc3[nH]2)CC1` [DLV], the “Viroseq Evidence of resistance” value in experiment [1] (setting [4]) is listed as “High”; in experiment [1] (setting [5]), “Zero”. The “Trugene Interpretation of resistances” value in experiment [2] (setting [4]) was “Resistance”; in experiment [2] (setting [5]), “No resistance”.
For `O=C1Nc2ccc(Cl)cc2[C@@](C#CC2CC2)(C(F)(F)F)O1` [EFV], the entries for the “Viroseq Evidence of resistance” value in experiment [1] (setting [4]) and in experiment [1] (setting [5]) were “High” and “Zero”, respectively. For the same compound, the “Trugene Interpretation of resistances” value in experiment [2] (setting [4]) was “Resistance”; in experiment [2] (setting [5]), “No resistance”. Besides, the “Phenoscript Contribution” value in experiment [3] (Patient 1 plasma sample) is on record as “Improbable”; in experiment [3] (Patient 2 plasma sample), “Probable”.
Regarding `Nc1nc(NC2CC2)c2ncn([C@H]3C=C[C@@H](CO)C3)c2n1` [ABC], the “Viroseq Evidence of resistance” value in experiment [1] (setting [4]) and in experiment [1] (setting [5]) was “Possible” each time. For the same compound, the entries for the “Trugene Interpretation of resistances” value in experiment [2] (setting [4]) and in experiment [2] (setting [5]) were “No resistance” and “Resistance”, respectively. Further, the “Phenoscript Contribution” value in experiment [3] (Patient 1 plasma sample) and in experiment [3] (Patient 2 plasma sample) was “Possible” throughout.
With `Cc1cn([C@H]2C[C@H](N=[N+]=[N-])[C@@H](CO)O2)c(=O)[nH]c1=O` [AZT], the “Viroseq Evidence of resistance” value in experiment [1] (setting [4]) and in experiment [1] (setting [5]) was “High” each time. In addition, the “Trugene Interpretation of resistances” value in experiment [2] (setting [4]) and in experiment [2] (setting [5]) was “Resistance” in each case. Also, the “Phenoscript Contribution” value in experiment [3] (Patient 1 plasma sample) and in experiment [3] (Patient 2 plasma sample) was “Improbable” each time.
Take `O=c1[nH]cnc2c1ncn2[C@H]1CC[C@@H](CO)O1` [ddI]: the “Viroseq Evidence of resistance” value in experiment [1] (setting [4]) and in experiment [1] (setting [5]) was “Possible” each time. In addition, the “Trugene Interpretation of resistances” value in experiment [2] (setting [4]) and in experiment [2] (setting [5]) was “Resistance” throughout. The “Phenoscript Contribution” value in experiment [3] (Patient 1 plasma sample) is given as “Probable”; in experiment [3] (Patient 2 plasma sample), “Possible”.
Regarding `Cc1c(O)cccc1C(=O)N[C@@H](CSc1ccccc1)[C@H](O)CN1C[C@H]2CCCC[C@H]2C[C@H]1C(=O)NC(C)(C)C` [NFV], the “Viroseq Evidence of resistance” value is listed as “Zero” in experiment [1] (setting [4]) and “Possible” in experiment [1] (setting [5]). In addition, the “Trugene Interpretation of resistances” value in experiment [2] (setting [4]) and in experiment [2] (setting [5]) was “No resistance” in each case. Besides, the “Phenoscript Contribution” value in experiment [3] (Patient 1 plasma sample) and in experiment [3] (Patient 2 plasma sample) was “Probable” each time.
As for `Cc1cccc(C)c1OCC(=O)N[C@@H](Cc1ccccc1)[C@@H](O)C[C@H](Cc1ccccc1)NC(=O)[C@H](C(C)C)N1CCCNC1=O` [LPV], the “Viroseq Evidence of resistance” value in experiment [1] (setting [4]) and in experiment [1] (setting [5]) was “Zero” throughout. For the same compound, the “Trugene Interpretation of resistances” value in experiment [2] (setting [4]) and in experiment [2] (setting [5]) was “No resistance” each time. The “Phenoscript Contribution” value in experiment [3] (Patient 1 plasma sample) and in experiment [3] (Patient 2 plasma sample) was “Probable” throughout.
In the case of `Nc1ccn([C@H]2CC[C@@H](CO)O2)c(=O)n1` [ddC], the “Viroseq Evidence of resistance” value in experiment [1] (setting [4]) and in experiment [1] (setting [5]) was “High” each time.
Take `Nc1ccn([C@@H]2CS[C@H](CO)O2)c(=O)n1` [3TC]: the “Viroseq Evidence of resistance” value in experiment [1] (setting [4]) and in experiment [1] (setting [5]) was “High” throughout. Also, the “Trugene Interpretation of resistances” value in experiment [2] (setting [4]) and in experiment [2] (setting [5]) was “Resistance” each time. Moreover, the “Phenoscript Contribution” value in experiment [3] (Patient 1 plasma sample) and in experiment [3] (Patient 2 plasma sample) was “Improbable” in each case.
`Cc1cn([C@H]2C=C[C@@H](CO)O2)c(=O)[nH]c1=O` [d4T]: the “Viroseq Evidence of resistance” value in experiment [1] (setting [4]) is reported as “High”; in experiment [1] (setting [5]) it was “Possible”. Further, the “Trugene Interpretation of resistances” value in experiment [2] (setting [4]) and in experiment [2] (setting [5]) was “Resistance” each time. The “Phenoscript Contribution” value in experiment [3] (Patient 1 plasma sample) and in experiment [3] (Patient 2 plasma sample) was “Probable” in each case.
Turning to `CC(C)CN(C[C@@H](O)[C@H](Cc1ccccc1)NC(=O)O[C@H]1CCOC1)S(=O)(=O)c1ccc(N)cc1` [APV], the “Viroseq Evidence of resistance” value in experiment [1] (setting [4]) and in experiment [1] (setting [5]) was “Zero” each time. In addition, the “Trugene Interpretation of resistances” value in experiment [2] (setting [4]) and in experiment [2] (setting [5]) was “No resistance” in each case. For the same compound, the “Phenoscript Contribution” value in experiment [3] (Patient 1 plasma sample) and in experiment [3] (Patient 2 plasma sample) was “Probable” throughout.
Take `CC(C)c1nc(CN(C)C(=O)N[C@H](C(=O)N[C@@H](Cc2ccccc2)C[C@H](O)[C@H](Cc2ccccc2)NC(=O)OCc2cncs2)C(C)C)cs1` [RTV]: the “Viroseq Evidence of resistance” value in experiment [1] (setting [4]) and in experiment [1] (setting [5]) was “Zero” throughout. Further, the “Trugene Interpretation of resistances” value in experiment [2] (setting [4]) and in experiment [2] (setting [5]) was “No resistance” in each case.
Turning to `CC(C)OC(=O)OCOP(=O)(CO[C@H](C)Cn1cnc2c(N)ncnc21)OCOC(=O)OC(C)C.O=C(O)/C=C/C(=O)O` [TDF], the “Trugene Interpretation of resistances” value in experiment [2] (setting [4]) is “No resistance”; in experiment [2] (setting [5]), “Resistance”.
In the case of `CC(C)(C)NC(=O)[C@@H]1CN(Cc2cccnc2)CCN1C[C@@H](O)C[C@@H](Cc1ccccc1)C(=O)N[C@H]1c2ccccc2C[C@H]1O` [IDV], the “Viroseq Evidence of resistance” value in experiment [1] (setting [4]) and in experiment [1] (setting [5]) was “Zero” in each case. For the same compound, the “Trugene Interpretation of resistances” value in experiment [2] (setting [4]) and in experiment [2] (setting [5]) was “No resistance” throughout. The “Phenoscript Contribution” value in experiment [3] (Patient 1 plasma sample) and in experiment [3] (Patient 2 plasma sample) was “Probable” each time.
